Test results from patent US20090042820A1, “Tubulin Binding Anti Cancer Agents And Prodrugs Thereof” (Threshold Pharmaceuticals, Inc., priority 2004, published 2009).
Read-outs that look alike come from different tables or passages of the source.

Assays:
[1] = patients, reported in literature; cited from earlier work
[2] = tested on: MES-SA/DX5; test: Alamar Blue antiproliferation assay, MES-SA/DX5; assay type: cell-based; details: MES-SA/DX5, 3 Day
[3] = tested on: H460 cells; test: Alamar Blue antiproliferation assay, H460 cell line; assay type: cell-based, human
Protocol: (§1) To determine the effect of the compounds of the present invention on cell proliferation, the antiproliferative activity of these compounds was tested in a multi-well Alamar Blue based assay (at 2 h and 3 days). Cell growth in the presence and absence of the test compound as tabulated in Table 1 was compared, as measured by a fluorescence plate reader at excitation 550 nm and emission 590 nm (see Biosource International Inc., Tech Application Notes, Use of Alamar Blue in the measurement of Cell Viability and Toxicity, Determining IC50). H460 cells (ATCC HTB-177 ([…]), 4,000 cells/well/200 μl) and LNCap cells (ATCC CRL-1740, 6,000 cells/well/200 μl) were seeded in a 96 well plate in RPMI medium (Invitrogen Corporation, Carlsbad, Calif.). After 24 hours, these plates were divided into 3 groups—Control group, 2 h treatment group and 3 day treatment group.
(§2) In the 2 h treatment group, after 2 h the cells were rinsed to remove the test compound and incubated for 3 days, followed by staining with AlamarBlue. The cells in the 3-day treatment group were incubated for 3 days, followed by staining with AlamarBlue. In the Control group, AlamarBlue was added to the plate at (i) day 0 and (ii) day 3 and measured to establish the control reading. In all the groups, the capacity of the cells to proliferate was measured 6 hours after addition of AlamarBlue by a fluorescence plate reader at excitation 550 nm and emission 590 nm.

[4] = tested on: MES-SA; test: Alamar Blue antiproliferation assay, MES-SA; assay type: cell-based; details: 3 Day
[5] = tested on: HT29; test: Alamar Blue antiproliferation assay, HT29; assay type: cell-based; details: HT29, 3 Day
[6] = tested on: cancer cell; test: Cancer cell antiproliferation assay (cell line not stated); assay type: cell-based; details: summary statement; read-out: GI50 or IC50 in a cancer cell antiproliferation assay
Protocol: In one aspect, the present invention provides a compound of formula (I-VII) having a GI50, GI90, IC50, or IC50 of about 0.001 to about 1000 nM, about 0.01 to about 100 nm, about 0.1 to about 50 nM, and about 1 to about 10 nM in a cancer cell antiproliferation assay. In one embodiment, the present invention provides a compound of formula (I) having a GI50 or IC50 of about 0.01 to about 100 nm, about 0.1 to about 50 nm, and about 1 to about 10 nm in a cancer cell antiproliferation assay. In various embodiments, said antiproliferation assays employ cancer cell including but not limited to gastric, colon, breast, and non-small cell lung cancer. In various embodiments, the […] cancer cell used is MESSA or doxorubicin resistant MESSA/DX5 cell; the colon cancer cell is HT29 cell; the breast cancer cell is T47D cell; and the non-small cell lung cancer cell is H460 cell.
as §1, §2

[7] = tested on: H460 cells; test: Cell cycle analysis; assay type: cell-based, human; details: 24 h
Protocol: H460 cells (2×10^5 cells/ml/well) were seeded in a 24 well plate. The culture media were removed after 24 h, the cells were trypsinized and centrifuged. […] The cells were centrifuged and the supernatant was discarded. The cell cycle staining reagent (Guava Technologies, Hayward, Calif., USA, 200 μl) was added to each well. The cells were shielded from light and incubated at room temperature for 30 min.

[8] = tested on: tubulin; test: Tubulin polymerization inhibition (cell free tubulin fluorescence); assay type: biochemical; details: compared to untreated tubulin, read-out: IC50 (μM), concentration that reduced tubulin fluorescence by 50%
Protocol: A sample of cell free tubulin polymerizes and the sample's fluorescence emission increases. Inhibition of tubulin polymerization by a tubulin binding compounds of the present invention was measured by the dose dependence of cell free tubulin fluorescence.

[9] = tested on: T47D; test: Alamar Blue antiproliferation assay, T47D; assay type: cell-based; details: 3 Day
[10] = Metabolic stability in mouse liver microsomes; assay type: in vitro ADME; details: 5 μM, 1 mg/mL protein, NADPH, 37° C.
Protocol: An in vitro assessment of metabolic stability of compounds was performed using commercially available mouse liver microsomes (MLM) containing cytochrome P450 enzymes (Cedra Corp, Austin, Tex.). A solutions (5 μM) of a compound and microsomes (1 mg/mL protein) was prepared. P450 enzymatic reactions were initiated by adding an NADPH solution. Enzymatic reactions were carried out in a thermostated shaking water bath kept at 37° C. Fifty μl of the reaction mixture was withdrawn immediately and 30 minutes after the addition of the NADPH solution and the proteins were precipitated with acetonitrile. The clear supernatant was analyzed by reversed phase LC-MS/MS (Applied Biosystems API-3000 with Hypersil-BDS C18 column and gradient elution), with internal standard area ratio quantification for the amount the compound remaining as shown in table 4.

[11] = Plasma stability; assay type: in vitro ADME; details: mouse plasma, 5 μM, 37° C.
Protocol: For an assessment of plasma stability of compounds, commercially available mouse plasma (Bioreclamation, Hicksville, N.Y.) was added to a DMSO solution of a compound, to a concentration of 5 μM. The reaction mixture (50 μl) was withdrawn immediately and after 30 minutes at 37° C., proteins were precipitated with acetonitrile. The clear supernatant was analyzed by reversed phase LC-MS/MS and the amount the compound remaining quantified as shown in table 4.

[12] = tested on: H460 xenograft; test: H460 xenograft mouse model; assay type: in vivo; details: day 21; taxol alone 10 mg/kg daily; treatment began at 150 mm^3 tumor volume
Protocol: Female CB17/SCID mice (purchased from Taconic, Oxnard, Calif.), 7-8 weeks of age, were allowed to acclimatize for at least three days, and handled under pathogen-free conditions. Human non-small cell lung cancer cell line […] was obtained from the American Type Culture Collection. The cell lines were cultured in RPMI 1640 media supplemented with 10% fetal bovine serum. Cells were maintained in a 37° C. incubator with 5% CO2. The H460 cells were harvested from culture and inoculated at 1×10^6 cells/animal in the […] subcutaneous space. […] Taxol was administered approximately 2-3 hours before that of compound 30.
The body weight of each mouse was recorded twice per week (FIG. 1). […] One animal in the treatment group was found dead on day 18, and two were found dead on day 22 in the combination group.
FIG. 2 graphically illustrates the mean tumor volume for each treatment group. Growth of each xenograft was monitored by externally measuring tumors in two dimensions using a digital caliper twice per week. Tumor volume (V) was determined by the following equation: V=(L×W^2)/2, where L is the length and W is the width of a xenograft. Tumor volumes were measured twice weekly. On day 11, the Treated/Control (T/C) ratio was 65% and 52% in the treatment and combination groups, respectively. At the final measurement (day 22), the T/C ratio for the treatment and combination groups respectively were 43% and 19%.

[13] = Homo sapiens, NCI-H460, 2 h treatment, then 3 days incubation, read-out: GI50 (nM) 2 Hour
[14] = Homo sapiens, NCI-H460, 72 h, 3 day treatment, read-out: GI50 (nM) 3 Days

Compound	GI50 ([2]; Homo sapiens, 72 h) [nM]	GI50 [3, 13] [nM]	GI50 [3, 14] [nM]	GI50 ([4]; Homo sapiens, 72 h) [nM]	GI50 ([5]; Homo sapiens, HT-29, 72 h) [nM]	IC50 [6] [nM]	GI50 ([9]; Homo sapiens, 72 h) [nM]	Metabolic stability (MLM, % remaining at 30 min) [10] [%]	other results
COc1ccc(/C=C\c2cc(OC)c(OC)c(OC)c2)cc1OP(=O)(O)O [Combretastatin A-4 phosphate]	–	–	–	–	–	–	–	–	maximum tolerated daily dose [1]: 60-68 mg/m^2
COc1cc(C(=O)c2n[nH]c3c(C#CC(=O)O)c(OC)ccc23)cc(OC)c1OC [Compound 37]	3.5	501	3.2	3.2	5	1 to 50	–	–	–
COc1cc(C(=O)c2n[nH]c3c(Br)c(OC)ccc23)cc(OC)c1OC [Compound 39]	10	–	15.8	2.5	12.6	1 to 50	200	–	% G2/M ([7]; H460, 0.4 nM): 28%; % Go/G1 ([7]; H460, 0.4 nM): 50%; % S ([7]; H460, 0.4 nM): 15%; % G2/M ([7]; H460, 1.2 nM): 31%; % Go/G1 ([7]; H460, 1.2 nM): 47%; % S ([7]; H460, 1.2 nM): 14%; % G2/M ([7]; H460, 3.7 nM): 32%; % Go/G1 ([7]; H460, 3.7 nM): 45%; % S ([7]; H460, 3.7 nM): 12%; % G2/M ([7]; H460, 11.1 nM): 29%; % Go/G1 ([7]; H460, 11.1 nM): 47%; % S ([7]; H460, 11.1 nM): 14%; % G2/M ([7]; H460, 33.3 nM): 60%; % Go/G1 ([7]; H460, 33.3 nM): 18%; % S ([7]; H460, 33.3 nM): 13%; IC50 [8]: 7.9 µM
COc1cc(C(=O)c2n[nH]c3c(/C=C/CO)c(OC)ccc23)cc(OC)c1OC [Compound 54]	6.3	501	2	3.2	5	1 to 50	20	–	–
COc1cc(C(=O)c2n[nH]c3c(CCCO)c(OC)ccc23)cc(OC)c1OC [Compound 55]	15.8	> 10000	7.9	12	10	1 to 50	25	–	–
COc1cc(C(=O)c2n[nH]c3c(C#CCOC(=O)OCc4ccc([N+](=O)[O-])o4)c(OC)ccc23)cc(OC)c1OC [Compound 57]	–	100	10	–	–	–	–	21 ± 4	–
COc1cc(C(=O)c2n[nH]c3c(C#N)c(OC)ccc23)cc(OC)c1OC [Compound 58]	–	> 10000	15.8	–	–	–	–	28 ± 6	–
COc1cc(C(=O)c2n[nH]c3c(C(N)=O)c(OC)ccc23)cc(OC)c1OC [Compound 60]	–	> 1000	25.1	–	–	–	–	94 ± 4	–
COc1cc(C(=O)c2n[nH]c3c(C#CC(C)O)c(OC)ccc23)cc(OC)c1OC (centres unmarked) [Compound 66]	10	–	10	15.8	12.6	1 to 50	6.3	88 ± 11	–
COc1cc(C(=O)c2n[nH]c3c(C#Cc4ccccn4)c(OC)ccc23)cc(OC)c1OC [Compound 68]	–	–	–	–	–	–	–	17 ± 4	GI50 [2]: 1.9 nM; GI50 ([3]; 3 day treatment, read-out: GI50 (nM) 3 Days): 1.4 nM; GI50 [4]: 1.6 nM; GI50 [5]: 1.6 nM; GI50 [9]: 1.6 nM
C#Cc1c(OC)ccc2c(C(=O)c3cc(OC)c(OC)c(OC)c3)n[nH]c12 [Compound 72]	3.9	–	1.3	1.9	1.6	1 to 50	6.3	40 ± 9	Plasma stability (% remaining at 30 min) [11]: 105%
CC(=O)O[C@H]1C(=O)[C@@]2(C)[C@H]([C@H](OC(=O)c3ccccc3)[C@]3(O)C[C@H](OC(=O)[C@H](O)[C@@H](NC(=O)c4ccccc4)c4ccccc4)C(C)=C1C3(C)C)[C@]1(OC(C)=O)CO[C@@H]1C[C@@H]2O [taxol, paclitaxel, reference compound]	–	–	–	–	–	–	–	–	TIC, tumor volume [12]: 56%
